From patent EP0603240B1, “SAFENING HERBICIDAL PYRAZOLYLSULFONYLUREAS” (priority 1991, dated 1993)

What was measured:
Type in all cases: in vivo
[1] = tested on: barnyardgrass (Echinochloa crusgalli); test: Example 22: retest of Example 21 at reduced greenhouse temperatures; details: Table 22
Procedure: (§1) Containers were filled and compacted with a fumigated silt loam top soil to a depth of about 1.3 cm from the top of the container. A first container was designated as an untreated control, a second container was designated as a herbicide control, and a third container was designated as a herbicide + antidote test container. Each of the containers was seeded with a crop species. A measured amount of herbicide dispersed or dissolved in acetone was applied to a measured quantity of soil. To this same quantity of soil treated with herbicide, there was added a measured amount of antidote dispersed or dissolved in acetone. The quantity of soil treated with the herbicide and antidote was thoroughly mixed to incorporate the herbicide and antidote in the soil uniformly. The seed bed in the third container of soil was covered with the soil treated with the herbicide and antidote and the container was leveled. For each test series, the seed beds of the first and second containers were likewise covered by soil layers. the cover layer of the first container was not treated with herbicide or antidote.
(§2) The containers were then placed on a bench in a greenhouse and sub-irrigated as required for the duration of the test. […] Plant response is measured in terms of percent injury. Antidote efficacy is indicated as the difference in plant injury by the herbicide(s) without the antidote and with the antidote.
(§3) This procedure is the same as Procedure I, but modified in the manner that after incorporation of the chemicals (herbicide and antidote) the containers with the covered seedbed were treated with an initial overhead irrigation equivalent to 0.6 cm rainfall, then subsequently sub-irrigated as required on greenhouse benches.
(§4) In the series of greenhouse tests described below, for routine screening purposes the herbicide/antidote compositions were tested in crop/weed combinations involving corn as the crop and either or both of the weeds barnyardgrass (Echinochloa crusgalli), a monocotyledonous weed, and velvetleaf (Abutilon theophrasti), a dicotyledonous weed. In the tables below, these weeds are indicated by the symbols "BYG" and "VL", respectively.
(§5) In this example, tests were conducted as in the preceding Examples 18-20, except here the co-herbicidal component was SUTAN® PLUS, a commercial product comprising as the active herbicidal ingredient the compound butylate (Herbicide No. 10) and an antidote […] (Antidote No. 1). Again, the antidotal compounds herein were Nos. 1, 2, 7, 13 and 15. Procedure II was used.
(§6) The experiments in this example were designed as a retest of those described in Example 21 in view of the uncharacteristically poor corn safety and weed control, believed to have resulted from unseasonably high temperatures in the greenhouse. Accordingly, temperatures were reduced for these tests.

[2] = tested on: velvetleaf (Abutilon theophrasti); test: as above; details: Table 22
Procedure: as §1, §2, §3, §4, §5, §6

[3] = tested on: barnyardgrass (Echinochloa crusgalli); test: Example 10, Procedure II: Herbicide No. 1 + propachlor (No. 5) with antidotes
Procedure: as §1, §2, §3, §4
(§7) In this test, the safening effect of various antidotes on the herbicidal combination of Herbicide No. 1 and another α-chloroacetanilide co-herbicide, propachlor, (Herbicide No. 5) was investigated. Propachlor is the active ingredient in the commercial herbicide RAMROD®. Procedure II was also used in this test as in the preceding example.

[4] = tested on: velvetleaf (Abutilon theophrasti); test: as above
Procedure: as §1, §2, §3, §4, §7

[5] = tested on: Giant foxtail (Setaria fabergi); test: Example 23, Procedure II: Antidote Nos. 15 and 17-21 against Herbicide No. 1, 13 days after application
Procedure: as §1, §2, §3
(§8) In other greenhouse tests, using Procedure II described above, the safening efficacy of Antidote Nos. 15 and 17-21 was evaluated against Herbicide No. 1 in corn in the presence of Giant foxtail (Setaria fabergi) and Velvetleaf (Abutilon theophrasti) as representative annual monocotyledonous and dicotyledonous weeds, respectively.
(§9) Test results are shown in Tables 23A and 23B wherein the indicated plant inhibition represents the average of duplicate replications, with observations being made thirteen (13) days after application of the chemicals. Giant foxtail and Velvetleaf are represented by the symbols "GFT" and "VL", respectively. The data in Table 23A show the test results using the antidotes at 2.24 kg/ha, whereas in Table 23B, the antidotal rate was reduced to 0.56 kg/ha.

[6] = tested on: velvetleaf (Abutilon theophrasti); test: as above
Procedure: as §1, §2, §3, §8, §9

corn [7] = test: as above; details: 13 days after application
Procedure: as §1, §2, §3, §8, §9

corn [8] = test: Example 8, Procedure II: Herbicide No. 1 + butachlor (No. 9) with antidotes
In short: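 Corn sown in silt loam and covered with soil pre-mixed with acetone-applied Herbicide No. 1 plus butachlor, with or without antidote. Given 0.6 cm overhead irrigation, then sub-irrigated in greenhouse; antidote effect is percent injury without minus with antidote.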

[9] = tested on: barnyardgrass (Echinochloa crusgalli); test: as above
Procedure: as §1, §2, §3, §4
(§10) In this test, the efficacy of the same five antidotes used in Examples 6 and 7 was investigated in compositions comprising Herbicide No. 1 and as a co-herbicide, butachlor (Herbicide No. 9), active ingredient in MACHETE® herbicide, a leading commercial rice herbicide. The test procedure used in this example was the same as that in Examples 6 and 7.

[10] = tested on: velvetleaf (Abutilon theophrasti); test: as above
Procedure: as §1, §2, §3, §4, §10

[11] = Herbicide No.1 0.56 Kg/ha + SUTAN + 8.96 Kg/ha + antidote 2.24 Kg/ha
[12] = Herbicide No.1 0.56 Kg/ha + SUTAN + 8.96 Kg/ha + antidote 8.96 Kg/ha
[13] = Herbicide No.1 1.12 Kg/ha + SUTAN + 8.96 Kg/ha + antidote 2.24 Kg/ha
[14] = Herbicide No.1 1.12 Kg/ha + SUTAN + 8.96 Kg/ha + antidote 8.96 Kg/ha
[15] = Herbicide No.1 0.14 kg/ha + Herbicide No.5 4.48 kg/ha, antidote rate 2.24 kg/ha
[16] = Herbicide No.1 0.14 kg/ha + Herbicide No.5 4.48 kg/ha, antidote rate 8.96 kg/ha
[17] = Herbicide No.1 0.56 kg/ha + Herbicide No.5 4.48 kg/ha, antidote rate 2.24 kg/ha
[18] = Herbicide No.1 0.56 kg/ha + Herbicide No.5 4.48 kg/ha, antidote rate 8.96 kg/ha
[19] = Table 23A, Herb. No. 1 0.14 Kg/Ha + antidote 2.24 Kg/ha
[20] = Table 23A, Herb. No. 1 0.28 Kg/Ha + antidote 2.24 Kg/ha
[21] = Table 23A, Herb. No. 1 0.56 Kg/Ha + antidote 2.24 Kg/ha
[22] = Table 23A, Herb. No. 1 1.12 Kg/Ha + antidote 2.24 Kg/ha
[23] = Table 23B, Herb. No. 1 0.14 Kg/Ha + antidote 0.56 Kg/ha
[24] = Table 23B, Herb. No. 1 0.28 Kg/Ha + antidote 0.56 Kg/ha
[25] = Table 23B, Herb. No. 1 0.56 Kg/Ha + antidote 0.56 Kg/ha
[26] = Table 23B, Herb. No. 1 1.12 Kg/Ha + antidote 0.56 Kg/ha
[27] = Herbicide No.1 0.14 + No.9 2.24 kg/ha + antidote 2.24 kg/ha
[28] = Herbicide No.1 0.14 + No.9 2.24 kg/ha + antidote 8.96 kg/ha
[29] = Herbicide No.1 0.56 + No.9 2.24 kg/ha + antidote 2.24 kg/ha
[30] = Herbicide No.1 0.56 + No.9 2.24 kg/ha + antidote 8.96 kg/ha

## CC1(C)OC(c2ccco2)CN1C(=O)C(Cl)Cl (stereo not shown) [compound 15]
[1]; [11]
  % Injury BYG: 85%
[1]; [12]
  % Injury BYG: 90%
[1]; [13]
  % Injury BYG: 85%
[1]; [14]
  % Injury BYG: 90%
[2]; [11]
  % Injury VL: 70%
[2]; [12]
  % Injury VL: 98%
[2]; [13]
  % Injury VL: 80%
[2]; [14]
  % Injury VL: 80%
[3]; [15]
  % Injury BYG: 98%
[3]; [16]
  % Injury BYG: 90%
[3]; [17]
  % Injury BYG: 93%
[3]; [18]
  % Injury BYG: 85%
[4]; [15]
  % Injury VL: 70%
[4]; [16]
  % Injury VL: 80%
[4]; [17]
  % Injury VL: 80%
[4]; [18]
  % Injury VL: 75%
[5]; [19]
  % Inhibition GFT: 20%
[5]; [20]
  % Inhibition GFT: 30%
[5]; [21]
  % Inhibition GFT: 65%
[5]; [22]
  % Inhibition GFT: 75%
[5]; [23]
  % Inhibition GFT: 20%
[5]; [24]
  % Inhibition GFT: 30%
[5]; [25]
  % Inhibition GFT: 60%
[5]; [26]
  % Inhibition GFT: 70%
[6]; [19]
  % Inhibition VL: 90%
[6]; [20]
  % Inhibition VL: 90%
[6]; [21]
  % Inhibition VL: 90%
[6]; [22]
  % Inhibition VL: 98%
[6]; [23]
  % Inhibition VL: 85%
[6]; [24]
  % Inhibition VL: 90%
[6]; [25]
  % Inhibition VL: 95%
[6]; [26]
  % Inhibition VL: 95%
Corn [7]; [19]
  % Inhibition Corn: 5%
Corn [7]; [20]
  % Inhibition Corn: 0%
Corn [7]; [21]
  % Inhibition Corn: 5%
Corn [7]; [22]
  % Inhibition Corn: 20%
Corn [7]; [23]
  % Inhibition Corn: 0%
Corn [7]; [24]
  % Inhibition Corn: 0%
Corn [7]; [25]
  % Inhibition Corn: 5%
Corn [7]; [26]
  % Inhibition Corn: 10%
Corn [8]; [27]
  % Injury Corn: 20%
Corn [8]; [28]
  % Injury Corn: 15%
Corn [8]; [29]
  % Injury Corn: 10%
Corn [8]; [30]
  % Injury Corn: 10%
[9]; [27]
  % Injury BYG: 99%
[9]; [28]
  % Injury BYG: 98%
[9]; [29]
  % Injury BYG: 95%
[9]; [30]
  % Injury BYG: 97%
[10]; [27]
  % Injury VL: 85%
[10]; [28]
  % Injury VL: 70%
[10]; [29]
  % Injury VL: 80%
[10]; [30]
  % Injury VL: 75%
